# Like-named read-outs stand apart in the source and are kept apart here.
# What was measured:
# S. aureus ATCC25923 = assay: Sensitivity test (MIC, broth dilution per CLSI); assay type: cell-based; settings: strain ATCC25923, MHB with 2% NaCl, 34° C., 24 hours, minimum concentration without colony growth
# Experimental: (§1) By referring to the methods and standards of the American Clinical and Laboratory Standards Institute (CLSI) for antimicrobial susceptibility testing, the drug resistance of each strain was verified. The MHB medium used in this test contained 2% NaCl (w/v).
# (§2) Preparation of test bacteria: each bacterium was respectively inoculated in 5 ml MHB medium, and cultured overnight at 37° C. on a shaker. The bacterial solution was adjusted to 0.5 McFarland turbidity (MCF) unit, and further diluted by 100 folds. The final bacterial concentration was 5×10^5 cfu/ml.
# (§3) Preparation of the flavonoids extract of C. paliurus leaves for application: 79.8 mg powder of the flavonoid extract from C. paliurus leaves prepared in Example 1 (based on the flavonoids proportion of 67.3581 wt. % in the flavonoids extract of C. paliurus leaves, the amount of flavonoids in the powder was 53.75 mg) was dissolved in 0.32 ml of DMSO, and further diluted with 3.68 ml MHB medium, to obtain the application solution of C. paliurus leaf with a flavonoids concentration at 13.44 mg/ml. […]
# (§4) Sensitivity test: 100 μl of the bacterial solution prepared above was added to the wells with serial concentration of drugs and the medium control. […] The minimum drug concentration without colony growth was determined as the minimum inhibitory concentration (MIC).
# MRSA-2 = assay: Sensitivity test (MIC, broth dilution per CLSI); assay type: cell-based, Methicillin-resistant S. aureus; settings: strain MRSA-2, MHB with 2% NaCl, 34° C., 24 hours, minimum concentration without colony growth
# Experimental: as §1, §2
# (§5) Preparation of the flavonoids extract of C. paliurus leaves for application: 79.8 mg powder of the flavonoid extract from C. paliurus leaves prepared in Example 1 (based on the flavonoids proportion of 67.3581 wt. % in the flavonoids extract of C. paliurus leaves, the amount of flavonoids in the powder was 53.75 mg) was dissolved in 0.32 ml of DMSO, and further diluted with 3.68 ml MHB medium, to obtain the application solution of C. paliurus leaf with a flavonoids concentration at 13.44 mg/ml.
# (§6) 100 μl of medium was added into the second well, and serial 2-fold dilutions were prepared until to the ninth well. The 10th well was set as the medium control.
# (§7) Sensitivity test: 100 μl of the bacterial solution prepared above was added to the wells with serial concentration of drugs and the medium control. The plate was placed in a humidified box and incubated at 34° C. for 24 hours. 20 μl of each bacterial solution was taken and diluted 50 times with the medium, then 100 μl of the diluted bacterial solution was spread on the culture plate and incubated overnight at 37° C. The minimum drug concentration without colony growth was determined as the minimum inhibitory concentration (MIC).
# MRSA-1 = assay: Sensitivity test (MIC, broth dilution per CLSI); assay type: cell-based, Methicillin-resistant S. aureus; settings: strain MRSA-1, MHB with 2% NaCl, 34° C., 24 hours, minimum concentration without colony growth
# Experimental: as §1, §2, §5, §6, §7
# MRSA-3 = assay: Sensitivity test (MIC, broth dilution per CLSI); assay type: cell-based, Methicillin-resistant S. aureus; settings: strain MRSA-3, MHB with 2% NaCl, 34° C., 24 hours, minimum concentration without colony growth
# Experimental: as §1, §2, §5, §6, §7
# MRSA-5 = assay: Sensitivity test (MIC, broth dilution per CLSI); assay type: cell-based, Methicillin-resistant S. aureus; settings: strain MRSA-5, MHB with 2% NaCl, 34° C., 24 hours, minimum concentration without colony growth
# Experimental: as §1, §2, §5, §6, §7
# MRSA strains = assay: Sensitivity test, MRSA strains compared with ATCC25923; assay type: cell-based, Methicillin-resistant S. aureus; settings: each MRSA strain vs ATCC25923
# Experimental: as §1, §2, §3, §4
# MRSA-4 = assay: Sensitivity test (MIC, broth dilution per CLSI); assay type: cell-based, Methicillin-resistant S. aureus; settings: Staphylococcus aureus; strain MRSA-4; MHB with 2% NaCl, 34° C., 24 hours; minimum concentration without colony growth
# Experimental: Sensitivity test: 100 μl of the bacterial solution prepared above was added to the wells with serial concentration of drugs and the medium control. The plate was placed in a humidified box and incubated at 34° C. for 24 hours. […] The minimum drug concentration without colony growth was determined as the minimum inhibitory concentration (MIC).
# [1] = Staphylococcus aureus, read-out: MIC
SMILES,MIC (S. aureus ATCC25923) [µg/mL],MIC (MRSA-2) [µg/mL],MIC (MRSA-1) [µg/mL],MIC (MRSA-3) [µg/mL],MIC (MRSA-5) [µg/mL],Sensitivity of each MRSA strain compared with S. aureus ATCC25923 (MRSA strains),MIC (MRSA-4) [µg/mL],MIC (S. aureus ATCC25923; [1]) [µg/mL],MIC (MRSA-2; [1]) [µg/mL],MIC (MRSA-1; [1]) [µg/mL],MIC (MRSA-3; [1]) [µg/mL],MIC (MRSA-5; [1]) [µg/mL]
Cc1onc(-c2ccccc2)c1C(=O)N[C@@H]1C(=O)N2[C@@H]1SC(C)(C)[C@@H]2C(=O)[O-].[Na+] [oxacillin sodium],0.125,0.5,0.5,0.5,0.5,lower than that of the standard strain of S. aureus ATCC25923,–,–,–,–,–,–
CC1(C)S[C@@H]2[C@H](NC(=O)Cc3ccccc3)C(=O)N2[C@H]1C(=O)O [penicillin sodium],–,–,–,–,–,lower than that of the standard strain of S. aureus ATCC25923,32,0.0312,1,4,1,4

# Reference: US12605419B2, “Flavonoid extract of Cyclocarya paliurus leaves and antibacterial drugs and/or antibacterial agents containing thereof” (priority 2020, dated 2026)
